Active and inactive are the calls of the source. No cut-off for these calls is given here.
Assays:
[1] = target: T1, Peroxisome proliferator-activated receptor gamma (Homo sapiens, UniProt P37231); experiment: Displacement of [3H2]nTZD3 from GST-tagged human recombinant PPARgamma by scintillation proximity assay
T1 sequence (P37231 whole entry): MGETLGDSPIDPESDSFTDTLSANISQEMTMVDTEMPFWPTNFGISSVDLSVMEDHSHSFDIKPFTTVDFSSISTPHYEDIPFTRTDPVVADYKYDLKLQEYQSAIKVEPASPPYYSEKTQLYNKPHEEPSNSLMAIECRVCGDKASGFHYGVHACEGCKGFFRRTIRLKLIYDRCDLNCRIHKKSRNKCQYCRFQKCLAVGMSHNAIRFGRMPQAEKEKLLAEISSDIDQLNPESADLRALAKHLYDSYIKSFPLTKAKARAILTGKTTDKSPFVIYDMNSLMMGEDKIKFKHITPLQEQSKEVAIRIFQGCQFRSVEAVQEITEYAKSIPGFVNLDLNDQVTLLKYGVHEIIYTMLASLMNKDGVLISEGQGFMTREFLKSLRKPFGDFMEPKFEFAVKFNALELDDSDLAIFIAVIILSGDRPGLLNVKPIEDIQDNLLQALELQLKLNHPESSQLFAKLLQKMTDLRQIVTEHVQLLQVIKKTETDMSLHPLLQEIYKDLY

[2] = target: T2, Peroxisome proliferator-activated receptor alpha (Homo sapiens, UniProt Q07869)
T2 sequence (Q07869 whole entry): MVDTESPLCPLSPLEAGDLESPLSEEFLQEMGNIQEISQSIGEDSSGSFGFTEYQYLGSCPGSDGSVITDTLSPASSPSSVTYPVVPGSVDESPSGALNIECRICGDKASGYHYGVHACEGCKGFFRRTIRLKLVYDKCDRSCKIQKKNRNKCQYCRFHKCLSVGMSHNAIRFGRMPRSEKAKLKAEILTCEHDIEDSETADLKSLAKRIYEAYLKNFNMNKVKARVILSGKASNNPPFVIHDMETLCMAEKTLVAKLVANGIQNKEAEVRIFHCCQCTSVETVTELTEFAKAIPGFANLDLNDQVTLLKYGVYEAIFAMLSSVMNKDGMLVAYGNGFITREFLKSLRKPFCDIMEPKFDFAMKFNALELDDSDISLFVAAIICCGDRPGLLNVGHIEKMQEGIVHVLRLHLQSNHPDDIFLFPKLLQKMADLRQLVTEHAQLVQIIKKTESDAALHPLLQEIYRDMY
Description: (§1) Displacement of [3H2]nTZD3 from GST-tagged human recombinant PPARalpha by scintillation proximity assay

[3] = Cytotoxicity against human MCF7 cells expressing human PPARgamma assessed as cell survival at 5 uM after 7 days by sulforhodamine B assay
[4] = target: T3, Peroxisome proliferator-activated receptor gamma (Homo sapiens) (UniProt P37231); experiment: Activation of human PPAR-gamma-dependent transcription expressed in human MCF7 cells assessed as induction of PPRE-reporter gene expression at 1 uM after 24 hrs by dual luciferase reporter gene assay; type: cell-based
T3 sequence (whole entry): T1 sequence (P37231 whole entry)

[5] = target: T2, Peroxisome proliferator-activated receptor alpha; remark: listed apart in the source
Description: as §1

SMILES | IC50 [1] [nM] | IC50 [2] [nM] | viability at 168 h, 5 µM [3] [%] | Activity [4] | IC50 [5] [nM]
CCCCCCCC/C=C(\CCCCCCCC(=O)O)[N+](=O)[O-] [NITROLEIC ACID] | 980 | > 15000 | < 5 |  | 
CCCCCCCC/C(=C\CCCCCCCC(=O)O)[N+](=O)[O-] [CXA-10] | 1610 | > 15000 |  |  | 
CCCCC/C(=C\CCCCCCCCCCC(=O)O)[N+](=O)[O-] | 190 | 1100 |  |  | 
CCCCCC/C(=C\CCCCCCCC(=O)O)[N+](=O)[O-] | 630 | > 15000 |  |  | 
CCCCCCCCCCCC/C(=C\CCCC(=O)O)[N+](=O)[O-] | 1720 | > 15000 |  |  | 
CCCCCC/C=C(\CCCCCCCC(=O)O)[N+](=O)[O-] | 830 | > 15000 |  |  | 
CCCCC/C=C(\CCCCCCCCCCC(=O)O)[N+](=O)[O-] | 39 | 1600 |  |  | 
CCCCC/C=C(\C/C=C\CCCCCCCC(=O)O)[N+](=O)[O-] |  |  |  | Active | 9600
CCCCCCCCCCCC/C=C(\CCCC(=O)O)[N+](=O)[O-] | 1680 | > 15000 |  |  | 

Reference: ChEMBL document CHEMBL1151944, “Activation of peroxisome proliferator-activated receptor gamma (PPARgamma) by nitroalkene fatty acids: importance of nitration position and degree of unsaturation” (J Med Chem, 2009)
